Source: patent US8012971B2, “Therapeutic agent for chronic obstructive pulmonary disease” (Dainippon Sumitomo Pharma Co., Ltd., priority 2005, dated 2011)

Test system: Guinea Pig Chronic Obstructive Pulmonary Disease (COPD) Model
Experiment: Histological investigations of lung in guinea pig COPD model
Type: in vivo
Conditions: 8 animals
Experimental: An evaluation was carried out as follows according to a report of Kosuke MORIZUMI, Junichi FUCHIGAMI et al., 2002, The 75th Annual Meeting of the Japanese Pharmacological Society (2002) Abstract No. P-259, “Study of a chronic obstructive pulmonary disease-Effects of theophylline on respiratory function and lung function of guinea pigs in an exposure of cigarette smoke.”
Male Hartley strain guinea pigs (purchased from Japan SLC, Inc.) were taken in a cigarette exposure holder (RMH-TUBES, manufactured by Muenster Ltd.) to secure them to an exposure chamber (Flow-past type nose-only inhalation chamber, manufactured by Muenster Ltd.), and allowed to inhale cigarette smoke (Hi-Lite, manufactured by Japan Tobacco Inc.) for 60 minutes per day for 5 days in a week, totally 4 weeks using a smoking exposure equipment (Hamburg II, manufactured by Borgwaldt Technik), while the exposure was carried out for 4 days in the 4th week. • (2) Drug Administrations
Each 0.5% MC suspension of a test drug was orally administered daily in 5 ml/weight (kg) once a day for 25 days from the first day of the exposure. To a sham-exposure group and a control group was orally administered a 0.5% MC suspension in a similar manner. Any oral administrations were carried out 0.5 to 1 hours before exposures on a cigarette-smoke-exposure day or after measurements when measuring respiratory functions. A drug was not administered on the day for measurement of respiratory functions after finishing the 4th week of the exposure. • (3) Measurements of Airway Resistance
After collection of BALF, trachea and lung were isolated. The ligation site of the left lung was opened, injected neutral formalin buffer into trachea, bronchi and lung at the pressure of 20 cm H2O via cannula fixed on the side of the lung, and the lung tissue was extended to be fixed. According to a conventional method, tissue section samples were produced using posterior lobe of the left lung and hematoxylin-eosin (HE) stain was carried out. Any other lung tissues were stored in neutral formalin buffers. Drug efficacies of the produced tissue samples were evaluated by scoring tissue changes under the microscope. The criteria of scores were shown as follows: −: none, ±: minimal, +: mild, ++: moderate, +++: severe. Each quantification was calculated as 0, 1, 2, 3, 4.

SMILES: CNC(=O)NCCn1c(-c2ccc(N3CCOCC3)cc2)csc1=Nc1cccc(F)c1 [SMP-028, N-{2-[2-[(3-fluorophenyl)imino]-4-(4-morpholinophenyl)-thiazol-3(2H)-yl]ethyl}-N′-methylurea]
- Number of animals with grade + (mild): A. Hyperplasia, epithelial cell, bronchus (10 mg/kg/day for 25 days): 0
- Number of animals with grade + (mild): B. Cellular exudation, neutrophil/eosinophil, lumen, bronchiole (10 mg/kg/day for 25 days): 0
- Number of animals with grade + (mild): C. Thickening, alveolar wall (10 mg/kg/day for 25 days): 2
- Number of animals with grade + (mild): D. Accumulation, foamy/macrophage-like cell, alveolus (10 mg/kg/day for 25 days): 2
- Number of animals with grade + (mild): E. Cellular infiltration, neutrophil, alveolus (10 mg/kg/day for 25 days): 0
- Number of animals with grade ++ (moderate): A. Hyperplasia, epithelial cell, bronchus (10 mg/kg/day for 25 days): 0
- Number of animals with grade ++ (moderate): B. Cellular exudation, neutrophil/eosinophil, lumen, bronchiole (10 mg/kg/day for 25 days): 0
- Number of animals with grade ++ (moderate): C. Thickening, alveolar wall (10 mg/kg/day for 25 days): 0
- Number of animals with grade ++ (moderate): D. Accumulation, foamy/macrophage-like cell, alveolus (10 mg/kg/day for 25 days): 0
- Number of animals with grade ++ (moderate): E. Cellular infiltration, neutrophil, alveolus (10 mg/kg/day for 25 days): 0
- Number of animals with grade +++ (severe): A. Hyperplasia, epithelial cell, bronchus (10 mg/kg/day for 25 days): 0
- Number of animals with grade +++ (severe): B. Cellular exudation, neutrophil/eosinophil, lumen, bronchiole (10 mg/kg/day for 25 days): 0
- Number of animals with grade +++ (severe): C. Thickening, alveolar wall (10 mg/kg/day for 25 days): 0
- Number of animals with grade +++ (severe): D. Accumulation, foamy/macrophage-like cell, alveolus (10 mg/kg/day for 25 days): 0
- Number of animals with grade +++ (severe): E. Cellular infiltration, neutrophil, alveolus (10 mg/kg/day for 25 days): 0
- Number of animals with grade ± (minimal): A. Hyperplasia, epithelial cell, bronchus (10 mg/kg/day for 25 days): 1
- Number of animals with grade ± (minimal): B. Cellular exudation, neutrophil/eosinophil, lumen, bronchiole (10 mg/kg/day for 25 days): 1
- Number of animals with grade ± (minimal): C. Thickening, alveolar wall (10 mg/kg/day for 25 days): 2
- Number of animals with grade ± (minimal): D. Accumulation, foamy/macrophage-like cell, alveolus (10 mg/kg/day for 25 days): 3
- Number of animals with grade ± (minimal): E. Cellular infiltration, neutrophil, alveolus (10 mg/kg/day for 25 days): 0
- Number of animals with grade − (none): A. Hyperplasia, epithelial cell, bronchus (10 mg/kg/day for 25 days): 7
- Number of animals with grade − (none): B. Cellular exudation, neutrophil/eosinophil, lumen, bronchiole (10 mg/kg/day for 25 days): 7
- Number of animals with grade − (none): C. Thickening, alveolar wall (10 mg/kg/day for 25 days): 4
- Number of animals with grade − (none): D. Accumulation, foamy/macrophage-like cell, alveolus (10 mg/kg/day for 25 days): 3
- Number of animals with grade − (none): E. Cellular infiltration, neutrophil, alveolus (10 mg/kg/day for 25 days): 8
- Number of animals with grade + (mild): A. Hyperplasia, epithelial cell, bronchus (30 mg/kg/day for 25 days): 0
- Number of animals with grade + (mild): B. Cellular exudation, neutrophil/eosinophil, lumen, bronchiole (30 mg/kg/day for 25 days): 0
- Number of animals with grade + (mild): C. Thickening, alveolar wall (30 mg/kg/day for 25 days): 1
- Number of animals with grade + (mild): D. Accumulation, foamy/macrophage-like cell, alveolus (30 mg/kg/day for 25 days): 2
- Number of animals with grade + (mild): E. Cellular infiltration, neutrophil, alveolus (30 mg/kg/day for 25 days): 0
- Number of animals with grade ++ (moderate): A. Hyperplasia, epithelial cell, bronchus (30 mg/kg/day for 25 days): 0
- Number of animals with grade ++ (moderate): B. Cellular exudation, neutrophil/eosinophil, lumen, bronchiole (30 mg/kg/day for 25 days): 0
- Number of animals with grade ++ (moderate): C. Thickening, alveolar wall (30 mg/kg/day for 25 days): 0
